Our source for the mutagenic call values is PubChem BioAssay AID1259407 (Chemical Carcinogenesis Research Information System (CCRIS), 2018).

The data set relates to CCRIS mutagenicity, Ames/micronucleus/aberration tests. Nature of the data set: CCRIS mutagenicity studies.
The mark [1] stands for this setting: Test System: AMES SALMONELLA TYPHIMURIUM, Strain/Indicator: TA98, Metabolic Activation: NONE, Method: STANDARD PLATE.
[2] abbreviates: Test System: AMES SALMONELLA TYPHIMURIUM, Strain/Indicator: TA98, Metabolic Activation: RAT, LIVER, S-9, AROCLOR 1254, Method: STANDARD PLATE.
[3] abbreviates: Test System: AMES SALMONELLA TYPHIMURIUM, Strain/Indicator: TA100, Metabolic Activation: NONE, Method: STANDARD PLATE.
Setting [4] is: Test System: AMES SALMONELLA TYPHIMURIUM, Strain/Indicator: TA100, Metabolic Activation: RAT, LIVER, S-9, AROCLOR 1254, Method: STANDARD PLATE.
Where [5] appears, read: Test System: AMES SALMONELLA TYPHIMURIUM, Strain/Indicator: TA1535, Metabolic Activation: NONE, Method: STANDARD PLATE.
The mark [6] stands for this setting: Test System: AMES SALMONELLA TYPHIMURIUM, Strain/Indicator: TA1535, Metabolic Activation: RAT, LIVER, S-9, AROCLOR 1254, Method: STANDARD PLATE.
Where [7] appears, read: Test System: AMES SALMONELLA TYPHIMURIUM, Strain/Indicator: TA1537, Metabolic Activation: NONE, Method: STANDARD PLATE.
Setting [8] is: Test System: AMES SALMONELLA TYPHIMURIUM, Strain/Indicator: TA1537, Metabolic Activation: RAT, LIVER, S-9, AROCLOR 1254, Method: STANDARD PLATE.
Setting [9] is: Test System: AMES SALMONELLA TYPHIMURIUM, Strain/Indicator: TA98, Metabolic Activation: NONE, Method: PREINCUBATION
[10] abbreviates: Test System: AMES SALMONELLA TYPHIMURIUM, Strain/Indicator: TA100, Metabolic Activation: NONE, Method: PREINCUBATION
Where [11] appears, read: Test System: AMES SALMONELLA TYPHIMURIUM, Strain/Indicator: TA1535, Metabolic Activation: NONE, Method: PREINCUBATION
The mark [12] stands for this setting: Test System: AMES SALMONELLA TYPHIMURIUM, Strain/Indicator: TA1537, Metabolic Activation: NONE, Method: PREINCUBATION

Activity calls are given as the source filed them. The rule behind the calls is not given here.

Turning to `Cc1c(C)c2c(c(C)c1O)CC[C@@](C)(CCC[C@H](C)CCC[C@H](C)CCCC(C)C)O2`, the mutagenic call is “inactive; negative” under setting [1]; “inactive; negative” under setting [2]; “inactive; negative” under setting [3]; “inactive; negative” under setting [4]; “inactive; negative” under setting [5]; “inactive; negative” under setting [6]. For the same compound, the mutagenic call under setting [7] was “inactive; negative”; the mutagenic call under setting [8] was “inactive; negative”; the mutagenic call (Test System: AMES SALMONELLA TYPHIMURIUM, Strain/Indicator: TA1538, Metabolic Activation: NONE, Method: STANDARD PLATE) is “inactive; negative”; the mutagenic call (Test System: AMES SALMONELLA TYPHIMURIUM, Strain/Indicator: TA1538, Metabolic Activation: RAT, LIVER, S-9, AROCLOR 1254, Method: STANDARD PLATE) was “inactive; negative”; the mutagenic call (Test System: E. COLI, Strain/Indicator: WP2, Metabolic Activation: NONE, Method: STANDARD PLATE) was “inactive; negative”; the mutagenic call (Test System: E. COLI, Strain/Indicator: WP2, Metabolic Activation: RAT, LIVER, S-9, AROCLOR 1254, Method: STANDARD PLATE) is “inactive; negative”.

Turning to `c1cc2ccc3cc4c(c5ccc(c1)c2c35)[C@H]1O[C@H]1CC4`, the mutagenic call (Test System: CHINESE HAMSTER V-79, Strain/Indicator: V-79/8-AZAGUANINE, Metabolic Activation: NONE, Method: STANDARD PLATE) is “active; positive”.

Regarding `CC(=O)c1ccc(N=O)cc1`, the mutagenic call under setting [1] is “active; positive”, the mutagenic call under setting [2] was “active; positive”, the mutagenic call under setting [3] is “active; positive” and the mutagenic call under setting [4] is “inactive; negative”.

As for `O.O.O.O.O.O.[Cl-].[Cl-].[Ni+2]`, the mutagenic call is “inactive; negative” (End Point: In vitro chromosomal aberrations, Test System: Chinese hamster V79 lung cells, Metabolic Activation: None); “inactive; negative” under setting [9]; “inactive; negative” (Test System: AMES SALMONELLA TYPHIMURIUM, Strain/Indicator: TA98, Metabolic Activation: RAT LIVER S-9, PHENOBARBITAL AND BETA-NAPHTHOFLAVONE, Method: PREINCUBATION); “inactive; negative” under setting [10]; “inactive; negative” (Test System: AMES SALMONELLA TYPHIMURIUM, Strain/Indicator: TA100, Metabolic Activation: RAT LIVER S-9, PHENOBARBITAL AND BETA-NAPHTHOFLAVONE, Method: PREINCUBATION); “inactive; negative” under setting [11]. Besides, the mutagenic call is, setting by setting: (Test System: AMES SALMONELLA TYPHIMURIUM, Strain/Indicator: TA1535, Metabolic Activation: RAT LIVER S-9, PHENOBARBITAL AND BETA-NAPHTHOFLAVONE, Method: PREINCUBATION) “inactive; negative”; under setting [12], “inactive; negative”; (Test System: AMES SALMONELLA TYPHIMURIUM, Strain/Indicator: TA1537, Metabolic Activation: RAT LIVER S-9, PHENOBARBITAL AND BETA-NAPHTHOFLAVONE, Method: PREINCUBATION) “inactive; negative”; (Test System: AMES SALMONELLA TYPHIMURIUM, Strain/Indicator: TA1538, Metabolic Activation: NONE, Method: PREINCUBATION) “inactive; negative”; (Test System: AMES SALMONELLA TYPHIMURIUM, Strain/Indicator: TA1538, Metabolic Activation: RAT LIVER S-9, PHENOBARBITAL AND BETA-NAPHTHOFLAVONE, Method: PREINCUBATION) “inactive; negative”; (Test System: CHINESE HAMSTER V-79, Strain/Indicator: V-79/(HGPRT), Metabolic Activation: NONE) “active; positive”. Also, the mutagenic call (Test System: E.COLI, Strain/Indicator: WP2UVRA, Metabolic Activation: NONE, Method: PREINCUBATION) is “inactive; negative” and the mutagenic call (Test System: E.COLI, Strain/Indicator: WP2UVRA, Metabolic Activation: RAT LIVER S-9, PHENOBARBITAL AND BETA-NAPHTHOFLAVONE, Method: PREINCUBATION) is “inactive; negative”.

In the case of `Cc1ccc(C(=O)n2ncc(Cl)c(Cl)c2=O)cc1`, the mutagenic call was “inactive; negative” under setting [1]; “inactive; negative” under setting [2]; “inactive; negative” under setting [3]; “inactive; negative” under setting [4]; “inactive; negative” under setting [5]; “inactive; negative” under setting [6]. Further, the mutagenic call by setting is: under setting [7], “inactive; negative”; under setting [8], “inactive; negative”.

Take `C=CCN(CC=C)CC=C`: the mutagenic call is “inactive; negative” (Test System: AMES SALMONELLA TYPHIMURIUM, Strain/Indicator: TA98, Metabolic Activation: HAMSTER, LIVER, S-9, AROCLOR 1254 (10%), Method: PREINCUBATION); “inactive; negative” under setting [9]; “inactive; negative” (Test System: AMES SALMONELLA TYPHIMURIUM, Strain/Indicator: TA98, Metabolic Activation: RAT, LIVER, S-9, AROCLOR 1254 (10%), Method: PREINCUBATION); “inactive; negative” (Test System: AMES SALMONELLA TYPHIMURIUM, Strain/Indicator: TA100, Metabolic Activation: HAMSTER, LIVER, S-9, AROCLOR 1254 (10%), Method: PREINCUBATION); “inactive; negative” under setting [10]; “inactive; negative” (Test System: AMES SALMONELLA TYPHIMURIUM, Strain/Indicator: TA100, Metabolic Activation: RAT, LIVER, S-9, AROCLOR 1254 (10%), Method: PREINCUBATION). The mutagenic call runs as follows: (Test System: AMES SALMONELLA TYPHIMURIUM, Strain/Indicator: TA1535, Metabolic Activation: HAMSTER, LIVER, S-9, AROCLOR 1254 (10%), Method: PREINCUBATION) “inactive; negative”; under setting [11], “inactive; negative”; (Test System: AMES SALMONELLA TYPHIMURIUM, Strain/Indicator: TA1535, Metabolic Activation: RAT, LIVER, S-9, AROCLOR 1254 (10%), Method: PREINCUBATION) “inactive; negative”; (Test System: AMES SALMONELLA TYPHIMURIUM, Strain/Indicator: TA1537, Metabolic Activation: HAMSTER, LIVER, S-9, AROCLOR 1254 (10%), Method: PREINCUBATION) “inactive; negative”; under setting [12], “inactive; negative”; (Test System: AMES SALMONELLA TYPHIMURIUM, Strain/Indicator: TA1537, Metabolic Activation: RAT, LIVER, S-9, AROCLOR 1254 (10%), Method: PREINCUBATION) “inactive; negative”.

With `C/C(C(=O)O)=C(\Cl)C(=O)O`, the mutagenic call was “inactive; negative” under setting [9]; “inactive; negative” under setting [10]; “inactive; negative” (Test System: AMES SALMONELLA TYPHIMURIUM, Strain/Indicator: TA104, Metabolic Activation: NONE, Method: PREINCUBATION).

For `O=C1CCC(=O)N1O`, the mutagenic call by setting is: under setting [1], “inactive; negative”; under setting [2], “inactive; negative”; under setting [3], “inactive; negative”; under setting [4], “inactive; negative”; under setting [5], “inactive; negative”; under setting [6], “inactive; negative”. Moreover, the mutagenic call by setting is: under setting [7], “inactive; negative”; under setting [8], “inactive; negative”.
